Assay results from article PMC9501280, “Anti-Inflammatory Activity of Soluble Epoxide Hydrolase Inhibitors Based on Selenoureas Bearing an Adamantane Moiety” (International Journal of Molecular Sciences, 2022).

Key:
[1] = tested on: LPS-stimulated C57bl/6j peritoneal macrophages; assay: Suppression of NO synthesis in LPS-stimulated peritoneal macrophages (Griess); assay type: cell-based, mice
Excerpt: For screening designed compounds according to their probable ability to limit inflammation, we used a test on the inhibition of LPS-induced activation of primary murine macrophages. The most prominent anti-inflammatory activity, defined as the suppression of nitric oxide synthesis by LPS-stimulated macrophages, was evident for compounds 4a and 5b. At the same time, for 4a, the cytotoxic concentration was 4.7–18.4 times higher than the effective anti-inflammatory concentration. […] According to the data obtained, there is no direct correlation between the efficiency of the inhibition of sEH and NO synthesis, which requires further studies of the anti-inflammatory activity of the investigated compounds.
Peritoneal macrophages (PM) were isolated from the peritoneal exudate of 30 male C57bl/6j mice. To accumulate PM, 1 mL of 3% peptone solution was injected intraperitoneally. After 3 days, the mice were euthanized by cervical dislocation. Cells of peritoneal exudate were obtained by aseptic washing of the abdominal cavity with 5 mL of sterile Hanks’s solution (+4–6 °C) without calcium and magnesium ions. The total number and viability of cells were assessed in a Goryaev counting chamber (Russia) with a 0.4% trypan blue staining (Sigma-Aldrich, St. Louis, MO, USA). The cell concentration was adjusted to 1.0 × 10^6 cells/mL in DMEM (Gibco) supplemented with 2 mM L-glutamine (Gibco), 10% heat-inactivated fetal bovine serum (BioClot, Passau, Germany), 100 U/mL penicillin and […] streptomycin (Gibco) and plated 200 μL/well in 96-well transparent plates (SPL Life Sciences Co., Ltd., Pochon, Korea). After 2 h at 37 °C in a humidified atmosphere with 5% CO2, wells were washed to remove nonadherent cells. After 24 h of incubation, 20 μL of the supernatants were substituted with 20 μL of solutions of the test compounds, followed with E. coli O127:B8 LPS (100 ng/mL final concentration) after 30 min. Experiments were run in 3 independent replicates.
The accumulation of nitrite anion (a stable decomposition product of NO produced by iNOS) in the supernatants was determined using a standard Griess reagent. Briefly, 50 μL of supernatants collected 22 h after incubation of PM with the test and control compounds were mixed with 50 μL of 1% sulfonamide in 2.5% H3PO4 and 50 μL of 0.1% N-(1-naphthyl) ethylenediamine in 2.5% H3PO4. After incubation at 23 °C for 10 min. in an orbital shaker, the optical density was determined at a wavelength of 550 nm with a microplate reader Infinite M200 PRO (Tecan, Austria).

[2] = tested on: B. subtilis 168 pNK-DinC; assay: Lux-biosensor, SOS response (PdinC); assay type: cell-based, Bacillus subtilis; conditions: compounds 1 μM to 1 mM; Standard = Mitomycin C 30 μM
Protocol: (§1) The study was carried out with use of the following whole-cell bacterial biosensors: Escherichia coli MG1655 pOxyR-lux, E. coli MG1655 pDps, E. coli MG1655 pSoxS-lux, E. coli MG1655 pColD-lux, E. coli MG1655 pAlkA-lux, E. coli MG1655 pXen7, Bacillus subtilis 168 pNK-AlkA, B. subtilis 168 pNK-MrgA and B. subtilis 168 pNK-DinC. These biosensors by the quantitation of bacterial stress promoters’ activity, make it possible to determine oxidative stress caused by hydrogen peroxide and the superoxide anion radical, SOS response, DNA alkylation, or general toxicity in Gram-positive and Gram-negative B. subtilis and E. coli cells. We used concentrations from 1 μM to 1 mM of the studied compounds added to the suspension of biosensor cells. […]
(§2) The bioluminescence of cells was measured using a Synergy HT luminometer (Biotek, Winooski, VT, USA) at room temperature. Lux biosensors based on E. coli were grown to an early logarithmic phase (OD ≈ 0.1) to achieve a background luminescence approximately 100–1000 RLU at the beginning of the measurements. Lux biosensors based on B. subtilis were grown to a logarithmic phase with an optical density OD ≈ 0.6 (and background luminescence of about 10–500 RLU). […] The kinetics of change in luminescence was measured at room temperature. […]

[3] = tested on: E. coli MG1655 pSoxS-lux; assay: Lux-biosensor, superoxide anion radicals (PsoxS); assay type: cell-based, Escherichia coli; conditions: compounds 1 μM to 1 mM; Standard = methyl viologen 100 μM
Protocol: as §1, §2

[4] = tested on: B. subtilis 168 pNK-MrgA; assay: Lux-biosensor, hydrogen peroxide (PmrgA); assay type: cell-based, Bacillus subtilis; conditions: compounds 1 μM to 1 mM; Standard = hydrogen peroxide 100 μM
Protocol: as §1, §2

**Q.** Which “cytotoxic concentration versus effective anti-inflammatory concentration” value ([1]; CC50 (MTT, LDH) over NO synthesis IC50, peritoneal macrophages) does the source give for [Se]=C(Nc1ccccc1)NC12CC3CC(CC(C3)C1)C2 [4a, 1-(Adamantan-1-yl)-3-phenylselenourea] here?
**A.** 4.7–18.4 times

**Q.** And the IC50 ([1]; Mus musculus, Peritoneal macrophage, 22 h, read-out: NO Synthesis, IC50 ± SE)?
**A.** 1600 ± 200 nM

**Q.** And the “max(Kind), B. subtilis 168 pNK-DinC” value [2]?
**A.** 1.1 ± 0.4

**Q.** And the “max(Kind), E. coli MG1655 pSoxS-lux” value [3]?
**A.** 1.16 ± 0.19

**Q.** What about the “max(Kind), B. subtilis 168 pNK-MrgA” value [4] of the same compound?
**A.** 1.2 ± 0.5

**Q.** [Se]=C(Nc1ccccc1)NC1C2CC3CC(C2)CC1C3 (stereo not drawn) [4g, 1-(Adamantan-2-yl)-3-phenylselenourea] was tested. Which “NO synthesis inhibition (in words)” value ([1]; LPS-stimulated macrophages) did it give?
**A.** able to inhibit sEH but not NO synthesis

**Q.** What about the “max(Kind), B. subtilis 168 pNK-DinC” value [2] of the same compound?
**A.** 1.1 ± 0.3

**Q.** What about the “max(Kind), E. coli MG1655 pSoxS-lux” value [3] of the same compound?
**A.** 1.0 ± 0.1

**Q.** What about the “max(Kind), B. subtilis 168 pNK-MrgA” value [4] of the same compound?
**A.** 1.2 ± 0.3
